Active and inactive are the calls of the source. No cut-off for these calls is given here.
Legend:
[1] = molecular target: Epidermal growth factor receptor (Homo sapiens) (UniProt P00533); test: Inhibition of EGFR Lys1 labeling site harbouring IPVAIKELR in human Huh-7 cells at 1 uM by KiNativ Profiling analysis relative to control; assay type: cell-based
[2] = molecular target: T1, Tyrosine-protein kinase ABL1 (Homo sapiens, UniProt P00519); test: Inhibition of ABL ACT labeling site in human Huh-7 cells at 1 uM by KiNativ Profiling analysis relative to control; assay type: cell-based
[3] = molecular target: T2, Interleukin-1 receptor-associated kinase 4 (Homo sapiens) (UniProt Q9NWZ3); test: Inhibition of IRAK4 Lys2 labeling site in human Huh-7 cell lysate at 1 uM by KiNativ Profiling analysis relative to control; assay type: subcellular
T2 sequence (whole entry): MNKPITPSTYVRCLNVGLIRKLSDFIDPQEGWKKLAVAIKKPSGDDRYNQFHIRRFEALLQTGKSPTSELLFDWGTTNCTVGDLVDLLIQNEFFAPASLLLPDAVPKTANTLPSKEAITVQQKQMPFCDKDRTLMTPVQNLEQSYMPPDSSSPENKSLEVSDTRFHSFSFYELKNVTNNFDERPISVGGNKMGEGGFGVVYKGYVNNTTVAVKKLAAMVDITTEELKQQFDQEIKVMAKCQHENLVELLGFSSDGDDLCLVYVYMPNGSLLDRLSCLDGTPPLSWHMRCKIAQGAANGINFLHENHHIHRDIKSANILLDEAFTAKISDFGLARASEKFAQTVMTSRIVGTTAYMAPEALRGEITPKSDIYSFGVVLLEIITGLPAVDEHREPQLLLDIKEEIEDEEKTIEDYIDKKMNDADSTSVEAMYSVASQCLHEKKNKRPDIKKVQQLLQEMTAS

[4] = molecular target: Mitogen-activated protein kinase 14 (Homo sapiens, UniProt Q16539); test: Inhibition of p38alpha (unknown origin) at 10 uM by Ambit Kinomescan binding assay relative to control; values are per cent of control
[5] = molecular target: Protein-tyrosine kinase 6 (Homo sapiens) (UniProt Q13882); test: Inhibition of BRK (unknown origin) at 10 uM by Ambit Kinomescan binding assay relative to control
[6] = molecular target: Calcium/calmodulin-dependent protein kinase type II subunit gamma (Homo sapiens) (UniProt Q13555); test: Inhibition of CAMK2g K1 labeling site harbouring KTSTQEYAAKIINTK in human Huh-7 cells at 10 uM by KiNativ Profiling analysis relative to control; assay type: cell-based
[7] = molecular target: Serine/threonine-protein kinase DCLK1 (Homo sapiens) (UniProt O15075); test: Inhibition of DCAMKL1 (unknown origin) at 10 uM by Ambit Kinomescan binding assay
[8] = molecular target: T1, Tyrosine-protein kinase ABL1; test: Inhibition of ABL Lys1 labeling site in human A-375 cells at 0.5 uM by KiNativ Profiling analysis relative to control; assay type: cell-based
[9] = molecular target: T3, Serine/threonine-protein kinase Nek9 (Homo sapiens) (UniProt Q8TD19); test: Inhibition of NEK9 K1 labeling site harbouring TEDDSLVVWKEVDLTR in human Huh-7 cells at 10 uM by KiNativ Profiling analysis relative to control; assay type: cell-based
T3 sequence (whole entry): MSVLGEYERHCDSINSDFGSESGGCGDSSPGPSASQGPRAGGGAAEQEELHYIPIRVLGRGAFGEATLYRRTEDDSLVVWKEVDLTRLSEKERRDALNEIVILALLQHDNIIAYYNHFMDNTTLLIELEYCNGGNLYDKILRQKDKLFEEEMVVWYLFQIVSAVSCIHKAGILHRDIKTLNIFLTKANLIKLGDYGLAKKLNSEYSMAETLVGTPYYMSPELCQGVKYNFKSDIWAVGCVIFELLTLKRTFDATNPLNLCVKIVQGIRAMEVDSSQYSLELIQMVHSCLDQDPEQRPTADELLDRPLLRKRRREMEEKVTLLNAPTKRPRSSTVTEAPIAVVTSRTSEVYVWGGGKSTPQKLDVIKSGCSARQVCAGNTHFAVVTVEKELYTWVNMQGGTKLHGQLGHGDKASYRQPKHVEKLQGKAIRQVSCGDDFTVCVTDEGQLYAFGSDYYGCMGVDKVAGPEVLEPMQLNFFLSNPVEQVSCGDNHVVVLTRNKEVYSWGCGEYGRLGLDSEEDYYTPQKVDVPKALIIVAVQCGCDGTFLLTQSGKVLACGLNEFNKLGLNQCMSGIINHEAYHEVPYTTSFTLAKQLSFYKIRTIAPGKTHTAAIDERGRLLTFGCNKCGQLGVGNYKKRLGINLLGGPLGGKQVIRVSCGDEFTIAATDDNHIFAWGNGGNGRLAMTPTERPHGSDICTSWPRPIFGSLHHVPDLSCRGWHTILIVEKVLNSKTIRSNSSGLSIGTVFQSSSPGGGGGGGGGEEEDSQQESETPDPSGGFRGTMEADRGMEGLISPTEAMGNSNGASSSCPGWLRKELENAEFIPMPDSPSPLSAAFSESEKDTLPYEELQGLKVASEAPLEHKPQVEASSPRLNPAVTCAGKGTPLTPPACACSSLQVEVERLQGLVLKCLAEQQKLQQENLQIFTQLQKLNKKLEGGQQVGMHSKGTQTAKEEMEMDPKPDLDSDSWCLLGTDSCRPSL

[10] = molecular target: Serine/threonine-protein kinase N2 (Homo sapiens) (UniProt Q16513); test: Inhibition of PKN2 Lys2 labeling site in human A-375 cells at 0.5 uM by KiNativ Profiling analysis relative to control; assay type: cell-based
[11] = Inhibition of NEK6/7 K2 labeling site harbouring VMHRDIKPANVFITATGVVK in human Huh-7 cells at 1 uM by KiNativ Profiling analysis relative to control; settings: condition cancer
[12] = test system: Receptor-type tyrosine-protein kinase FLT3 (Homo sapiens), P36888 [D835Y]; test: Inhibition of FLT3 D835Y mutant (unknown origin) at 1 uM by Ambit Kinomescan binding assay relative to control; values are per cent of control
[13] = test system: Tyrosine-protein kinase ABL1 (Homo sapiens), P00519 [Q252H]; test: Inhibition of phosphorylated ABL1 Q252H mutant (unknown origin) at 1 uM by Ambit Kinomescan binding assay relative to control; values are per cent of control
[14] = test system: Epidermal growth factor receptor (Homo sapiens), P00533 [UNDEFINED MUTATION]; test: Inhibition of EGFR L747-E749del/A750P mutant (unknown origin) at 1 uM by Ambit Kinomescan binding assay relative to control
[15] = molecular target: Tyrosine-protein kinase receptor UFO (Homo sapiens) (UniProt P30530); test: Inhibition of AXL ACT labeling site in human A-375 cells at 5 uM by KiNativ Profiling analysis relative to control; assay type: cell-based

Epidermal growth factor receptor (Homo sapiens), sequence (P00533 whole entry): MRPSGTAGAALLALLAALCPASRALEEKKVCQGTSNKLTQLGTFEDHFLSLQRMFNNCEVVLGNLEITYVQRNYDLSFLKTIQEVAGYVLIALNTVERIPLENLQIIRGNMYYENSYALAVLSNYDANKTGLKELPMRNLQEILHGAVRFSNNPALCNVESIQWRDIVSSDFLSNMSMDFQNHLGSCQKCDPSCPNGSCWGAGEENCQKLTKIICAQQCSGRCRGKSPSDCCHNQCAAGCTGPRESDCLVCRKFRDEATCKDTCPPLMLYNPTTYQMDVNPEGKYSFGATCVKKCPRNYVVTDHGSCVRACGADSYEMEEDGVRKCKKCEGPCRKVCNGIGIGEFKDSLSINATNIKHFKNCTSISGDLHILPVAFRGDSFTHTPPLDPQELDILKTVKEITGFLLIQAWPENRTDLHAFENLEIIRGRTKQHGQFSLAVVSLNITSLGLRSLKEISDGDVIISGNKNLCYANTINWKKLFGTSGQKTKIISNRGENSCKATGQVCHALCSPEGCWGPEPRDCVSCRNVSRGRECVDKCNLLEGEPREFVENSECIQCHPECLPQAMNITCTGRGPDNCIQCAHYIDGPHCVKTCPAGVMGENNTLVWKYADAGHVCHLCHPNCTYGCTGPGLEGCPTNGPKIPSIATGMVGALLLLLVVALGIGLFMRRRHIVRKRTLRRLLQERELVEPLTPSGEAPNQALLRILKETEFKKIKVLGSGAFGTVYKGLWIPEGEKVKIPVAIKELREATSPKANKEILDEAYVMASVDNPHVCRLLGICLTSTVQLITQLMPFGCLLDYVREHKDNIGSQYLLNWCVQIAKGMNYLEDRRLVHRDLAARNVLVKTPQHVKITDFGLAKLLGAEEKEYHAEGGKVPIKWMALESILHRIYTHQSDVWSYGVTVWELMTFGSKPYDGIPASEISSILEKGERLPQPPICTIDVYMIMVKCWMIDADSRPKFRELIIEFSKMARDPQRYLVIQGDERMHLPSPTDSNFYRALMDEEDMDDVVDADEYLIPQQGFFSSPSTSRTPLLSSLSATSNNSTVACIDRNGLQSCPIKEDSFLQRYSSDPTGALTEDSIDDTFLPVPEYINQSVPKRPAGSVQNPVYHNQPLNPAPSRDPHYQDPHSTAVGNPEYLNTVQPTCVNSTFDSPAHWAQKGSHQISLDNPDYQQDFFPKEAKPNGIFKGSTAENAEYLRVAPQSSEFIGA
Epidermal growth factor receptor (Homo sapiens), P00533 [UNDEFINED MUTATION], sequence (P00533 whole entry, looked up, stated change not applied): as the sequence (P00533 whole entry) above
Serine/threonine-protein kinase N2 (Homo sapiens), sequence (Q16513 whole entry, looked up): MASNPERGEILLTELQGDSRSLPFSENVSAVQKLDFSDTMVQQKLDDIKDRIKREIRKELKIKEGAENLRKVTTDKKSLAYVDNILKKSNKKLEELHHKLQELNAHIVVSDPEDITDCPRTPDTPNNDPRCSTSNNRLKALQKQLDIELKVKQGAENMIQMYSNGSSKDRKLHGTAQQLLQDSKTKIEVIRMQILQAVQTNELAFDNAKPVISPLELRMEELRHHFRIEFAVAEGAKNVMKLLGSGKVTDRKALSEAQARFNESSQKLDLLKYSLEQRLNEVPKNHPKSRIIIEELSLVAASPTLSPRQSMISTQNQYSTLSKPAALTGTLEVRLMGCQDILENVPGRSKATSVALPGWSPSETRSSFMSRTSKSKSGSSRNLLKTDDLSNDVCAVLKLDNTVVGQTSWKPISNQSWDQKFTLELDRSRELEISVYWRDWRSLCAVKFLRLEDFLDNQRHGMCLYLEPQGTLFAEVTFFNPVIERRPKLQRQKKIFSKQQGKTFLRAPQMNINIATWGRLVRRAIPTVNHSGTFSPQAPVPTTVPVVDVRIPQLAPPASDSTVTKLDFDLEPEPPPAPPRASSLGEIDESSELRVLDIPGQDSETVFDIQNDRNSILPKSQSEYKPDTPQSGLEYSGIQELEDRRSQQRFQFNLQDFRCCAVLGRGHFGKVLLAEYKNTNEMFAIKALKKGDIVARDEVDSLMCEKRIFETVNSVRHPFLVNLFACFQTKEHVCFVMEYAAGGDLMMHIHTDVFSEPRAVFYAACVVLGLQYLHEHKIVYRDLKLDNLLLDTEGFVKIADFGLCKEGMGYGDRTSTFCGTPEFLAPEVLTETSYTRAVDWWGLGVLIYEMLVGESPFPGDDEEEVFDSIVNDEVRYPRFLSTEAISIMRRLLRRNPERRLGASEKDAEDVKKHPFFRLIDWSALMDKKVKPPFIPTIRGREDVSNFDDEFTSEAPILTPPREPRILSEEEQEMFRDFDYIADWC
Protein-tyrosine kinase 6 (Homo sapiens), sequence (Q13882 whole entry, looked up): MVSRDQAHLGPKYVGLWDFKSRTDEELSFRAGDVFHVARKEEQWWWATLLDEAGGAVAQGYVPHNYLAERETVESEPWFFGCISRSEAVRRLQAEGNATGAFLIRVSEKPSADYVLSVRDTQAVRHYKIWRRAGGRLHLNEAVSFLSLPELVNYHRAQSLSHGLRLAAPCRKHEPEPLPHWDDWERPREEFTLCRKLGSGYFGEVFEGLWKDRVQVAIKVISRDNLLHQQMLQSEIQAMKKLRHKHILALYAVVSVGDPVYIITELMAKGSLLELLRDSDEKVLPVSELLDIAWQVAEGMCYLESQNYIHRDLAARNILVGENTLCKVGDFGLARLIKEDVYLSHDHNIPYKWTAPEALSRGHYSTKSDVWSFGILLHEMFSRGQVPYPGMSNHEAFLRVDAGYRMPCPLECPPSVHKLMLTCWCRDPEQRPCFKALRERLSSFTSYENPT
Serine/threonine-protein kinase DCLK1 (Homo sapiens), sequence (O15075 whole entry): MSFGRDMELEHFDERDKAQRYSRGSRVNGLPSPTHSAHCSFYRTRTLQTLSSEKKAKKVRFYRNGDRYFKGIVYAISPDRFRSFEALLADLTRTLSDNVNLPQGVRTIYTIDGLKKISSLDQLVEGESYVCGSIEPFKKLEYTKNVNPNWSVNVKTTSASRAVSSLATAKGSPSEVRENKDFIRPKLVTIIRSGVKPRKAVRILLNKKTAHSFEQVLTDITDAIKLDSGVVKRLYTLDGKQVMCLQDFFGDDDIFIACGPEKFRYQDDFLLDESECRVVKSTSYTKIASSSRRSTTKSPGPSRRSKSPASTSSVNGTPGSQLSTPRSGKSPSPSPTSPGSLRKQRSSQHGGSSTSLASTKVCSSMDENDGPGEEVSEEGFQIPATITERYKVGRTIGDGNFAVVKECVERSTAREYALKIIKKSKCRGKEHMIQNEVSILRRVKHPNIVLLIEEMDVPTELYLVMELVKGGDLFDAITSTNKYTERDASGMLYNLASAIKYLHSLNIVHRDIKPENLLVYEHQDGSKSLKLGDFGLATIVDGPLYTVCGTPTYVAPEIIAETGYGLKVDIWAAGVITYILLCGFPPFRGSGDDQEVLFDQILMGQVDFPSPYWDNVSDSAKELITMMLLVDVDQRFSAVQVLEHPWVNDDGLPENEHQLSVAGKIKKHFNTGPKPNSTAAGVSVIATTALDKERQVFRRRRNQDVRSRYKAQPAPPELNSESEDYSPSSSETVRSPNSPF
Mitogen-activated protein kinase 14, sequence (Q16539 whole entry): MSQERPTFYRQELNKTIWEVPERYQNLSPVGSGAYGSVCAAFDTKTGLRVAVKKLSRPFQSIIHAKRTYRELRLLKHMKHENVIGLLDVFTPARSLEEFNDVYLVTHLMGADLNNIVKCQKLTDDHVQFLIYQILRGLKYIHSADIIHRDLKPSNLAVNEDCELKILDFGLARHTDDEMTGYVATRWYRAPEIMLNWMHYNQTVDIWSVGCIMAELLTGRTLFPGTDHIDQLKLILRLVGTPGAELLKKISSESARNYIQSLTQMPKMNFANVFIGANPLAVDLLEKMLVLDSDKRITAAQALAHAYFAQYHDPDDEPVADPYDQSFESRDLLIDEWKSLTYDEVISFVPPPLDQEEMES

Compound: CNc1cc(Oc2cc(C(=O)Nc3cc(N4CCN(C)CC4)cc(C(F)(F)F)c3)ccc2C)ncn1
- inhibition [1]: 7.2%
- inhibition [2]: 31.6%
- inhibition [3]: 8.4%

Compound: CCN1CCN(Cc2ccc(NC(=O)c3ccc(C)c(Oc4ccnc5[nH]ccc45)c3)cc2C(F)(F)F)CC1
- percent of control [4]: 0%
- inhibition [5]: 28%
- inhibition [6]: 6.1%
- inhibition [7]: inactive
- inhibition [8]: 85.5%
- inhibition [9]: 18.6%
- inhibition [10]: -5.6%
- inhibition at 1 µM [11]: -15.7%

Compound: CCN1CCN(Cc2ccc(NC(=O)c3ccc(C)c(/C=C/c4cnc5[nH]ccc5c4OC)c3)cc2C(F)(F)F)CC1
- residual activity [12]: 6.8%
- percent of control [13]: 1.2%
- inhibition [14]: 3%
- inhibition [15]: -6.1%

From ChEMBL document CHEMBL5696442, “Discovery of type II inhibitors of TGFβ-activated kinase 1 (TAK1) and mitogen-activated protein kinase kinase kinase kinase 2 (MAP4K2)” (J Med Chem, 2015)
